Assay results as given in the NIST ThermoML archive (doi:10.1021/je0400052).

Assays:
[1] = 101.33 kPa, Liquid
[2] = refractive index (Na D-line) (dimensionless); conditions: 101.33 kPa, Liquid
[3] = xn = mol fraction of the nth substance listed; conditions: 101.3 kPa, Liquid
[4] = refractive index (Na D-line) (dimensionless); xn = mol fraction of the nth substance listed; conditions: 101.3 kPa, Liquid

Cc1ccccc1C [1,2-dimethylbenzene]
Conditions	mass density, [1] [kg/m3]	refractive index, [2]	viscosity, [1] [mPa·s]
303.15 K	870.8	1.5001	0.695
313.15 K	863.3	1.4981	0.621

Cc1cccc(C)c1 [1,3-dimethylbenzene]
Conditions	mass density, [1] [kg/m3]	refractive index, [2]	viscosity, [1] [mPa·s]
303.15 K	855.3	1.492	0.557
313.15 K	847.1	1.4901	0.508

CCOC(=O)c1ccccc1 [ethyl benzoate] + CCc1ccccc1
Conditions	mass density, [3] [kg/m3]	refractive index, [4]	viscosity, [3] [mPa·s]
303.15 K, x1 = 0.0862	875.1	1.492	0.643
303.15 K, x1 = 0.1804	892.6	1.4932	0.711
303.15 K, x1 = 0.2589	910.2	1.4934	0.767
303.15 K, x1 = 0.3522	927.2	1.4942	0.857
303.15 K, x1 = 0.472	950.1	1.496	0.97
303.15 K, x1 = 0.5625	967	1.4968	1.071
303.15 K, x1 = 0.6722	984.9	1.4971	1.206
303.15 K, x1 = 0.7675	1002	1.4992	1.33
303.15 K, x1 = 0.8678	1019	1.4998	1.496
303.15 K, x1 = 0.9325	1040.9	1.5003	1.615
313.15 K, x1 = 0.0862	867	1.4911	0.57
313.15 K, x1 = 0.1804	884.3	1.4921	0.629
313.15 K, x1 = 0.2589	901.3	1.493	0.682
313.15 K, x1 = 0.3522	918.1	1.4937	0.745
313.15 K, x1 = 0.472	941.4	1.4954	0.844
313.15 K, x1 = 0.5625	960.4	1.4959	0.937
313.15 K, x1 = 0.6722	976.2	1.4963	1.063
313.15 K, x1 = 0.7675	993	1.4981	1.169
313.15 K, x1 = 0.8678	1009.7	1.4992	1.268
313.15 K, x1 = 0.9325	1027.4	1.4996	1.335

CCOC(=O)c1ccccc1 [ethyl benzoate] + Cc1ccc(C)cc1
Conditions	mass density, [3] [kg/m3]	refractive index, [4]	viscosity, [3] [mPa·s]
303.15 K, x1 = 0.0916	871.1	1.4931	0.622
303.15 K, x1 = 0.1757	889.3	1.4939	0.679
303.15 K, x1 = 0.2719	908.4	1.4951	0.765
303.15 K, x1 = 0.3616	925.3	1.4957	0.837
303.15 K, x1 = 0.4681	947.1	1.4965	0.951
303.15 K, x1 = 0.5703	964.8	1.497	1.045
303.15 K, x1 = 0.673	982.8	1.4983	1.181
303.15 K, x1 = 0.7781	1000.8	1.4988	1.325
303.15 K, x1 = 0.8651	1022.8	1.4995	1.469
303.15 K, x1 = 0.937	1040.8	1.5001	1.603
313.15 K, x1 = 0.0916	863	1.4912	0.55
313.15 K, x1 = 0.1757	880.9	1.4924	0.606
313.15 K, x1 = 0.2719	899.9	1.4948	0.686
313.15 K, x1 = 0.3616	917.3	1.495	0.739
313.15 K, x1 = 0.4681	937.5	1.4956	0.825
313.15 K, x1 = 0.5703	956	1.4963	0.9
313.15 K, x1 = 0.673	974	1.4972	1.008
313.15 K, x1 = 0.7781	993.2	1.4979	1.126
313.15 K, x1 = 0.8651	1010.2	1.4989	1.239
313.15 K, x1 = 0.937	1028.2	1.4996	1.339
